Columns and labels:
Format in all cases: in vivo
[1] = tested on: LI-Larven von Lucilia sericata; test: Action against L1 larvae of Lucilia sericata (larval culture medium, mortality); conditions: reduced concentration of 100 ppm, after 4 days; for mortality at 100 ppm: Lucilia sericata, 96 h, read-out: Wirkung (Mortalitätsrate)
Experimental: Beispiel B.2: Wirkung gegen LI-Larven von Lucilia sericata
(§1) 1 ml einer wässrigen Suspension der zu prüfenden Aktivsubstanz werden so mit 3 ml eines speziellen Larvenzuchtmediums bei ca. 50°C vermischt, dass ein Homogenisat von wahlweise 250 ppm oder 100 ppm Wirkstoffgehalt entsteht. In jede Reagenzglas-Probe werden ca. 30 Lucilia-Larven (L1) eingesetzt. Nach 4 Tagen wird die Mortalitätsrate bestimmt. Die Verbindungen aus den Herstellungsbeispielen zeigen bei 250 ppm eine Wirkung von 100 %, wobei Verbindungen aus den Herstellungsbeispielen diese Wirkung auch noch bei der reduzierten Wirkstoffkonzentration von 100 ppm erzielen, wie beispielsweise die Verbindungen Nr. 1.10, 1.18, 1.26, 1.34, 1.39, 1.43, 1.46, 1.54, 1.58, 1.62, 1.82, 1.90 und 1.114.

[2] = tested on: Ll-Larven von Lucilia cuprina; test: Action against L1 larvae of Lucilia cuprina (as B.2); conditions: niedrigere Konzentrationen (below 100 ppm)
Experimental: as §1
Beispiel B.3: Wirkung gegen Ll-Larven von Lucilia cuprina
Der Test wird wie unter B.2 beschrieben durchgeführt, jedoch mit Larven von Lucilia cuprina. […] Bei manchen Verbindungen wird dieser Effekt bereits mit niedrigeren Konzentrationen erreicht, beispielsweise mit den Verbindungen Nr. 1.34, 1.90 und 1.114.

Aedes aegypti = test: Larvicidal action against Aedes aegypti (larvae in water); conditions: niedrigere Konzentrationen (below 3 ppm)
Experimental: Beispiel B.10: Larvizidwirkung gegen Aedes aegypti
Auf die Oberfläche von 150 ml Wasser, das sich in einem Behälter befindet, wird soviel einer 0,1 %igen acetonischen Lösung des Wirkstoffes pipettiert, dass Konzentrationen von wahlweise 12,5 ppm, 3,3 ppm und 1,6 ppm erhalten werden. Nach Verdunsten des Acetons wird der Behälter mit ca. 30-40 3 Tage alten Aedes-Larven beschickt. Nach 1, 2 und 5 Tagen wird die Mortalität geprüft.

Spodoptera littoralis = test: Insecticidal stomach-poison action on Spodoptera littoralis (sprayed cotton plants); conditions: niedrigere Konzentrationen (below 12,5 ppm); L1 larvae
Experimental: Beispiel B.6: Insektizide Frassgift-Wirkung bei Spodoptera littoralis
Eingetopfte Baumwollpflanzen im 5-Blatt-Stadium werden mit einer acetonisch/wässrigen Versuchslösung besprüht, die 3, 12,5 oder 50 ppm der zu prüfenden Verbindung enthält.
Nach dem Antrocknen des Belags werden die Pflanzen mit ca. 30 Larven (LI-Stadium) von Spodoptera littoralis besetzt. Pro Versuchsverbindung und pro Test-Spezies verwendet man zwei Pflanzen. Der Versuch wird bei ca. 24°C und 60 % relativer Luftfeuchtigkeit durchgeführt. Auswertungen und Zwischenauswertungen auf moribunde Tiere, Wachstum und Larven und Frassschäden erfolgen nach 24 Stunden, 48 Stunden und 72 Stunden.

[3] = tested on: OP-sensible Tetranychus urticae; test: Action against plant-damaging acarids, OP-sensitive Tetranychus urticae (sprayed bean plants); conditions: niedrigere Konzentrationen (below 1,6 ppm); after seven days
Experimental: Beispiel B.7: Wirkung gegen pflanzenschädigende Akariden OP-sensible Tetranychus urticae
Die Primärblätter von Bohnenpflanzen (Phaseolus vulgaris) werden 16 Stunden vor dem Versuch mit einem durch T. urticae infestierten, aus einer Massenzucht stammenden Blattstück belegt. […] Die Temperatur in der Gewächshauskabine beträgt ca. 25°C.
Nach sieben Tagen wird unter dem Binokular auf Prozentsatz mobiler Stadien (Adulte und Nymphen) und auf vorhandene Eier ausgewertet.

Meloidogyne incognita = test: Soil nematicidal action against Meloidogyne incognita (tomato plants, root-knot index); conditions: after 4 weeks
Experimental: Beispiel B.4: Bodennematizide Wirkung gegen Meloidogyne incognita
(§2) Eier von Meloidogyne incognita werden in Sand eingemischt. Dieses Gemisch wird dann in 200 ml fassende Tontöpfe eingebracht (5000 Eier pro Topf). Am gleichen Tag wird pro Topf eine 3 Wochen alte Tomatenpflanze gepflanzt und der aus 50 %-igem Emulsionskonzentrat formulierte Wirkstoff mittels Druckapplikation in die Töpfe hineingegeben. Die eingetopften Pflanzen werden nun bei einer Temperatur von 26!1°C und einer relativen Luftfeuchtigkeit von 60 % in einem Gewächshaus aufgestellt. Nach Ablauf von 4 Wochen erfolgt eine Evaluierung durch Untersuchung der Pflanzen auf Wurzelgallbildung nach dem sogenannten Wurzelgall-Index ("Knot Index").

Caenorhabditis elegans = test: Soil nematicidal action against Caenorhabditis elegans (as B.4); conditions: test as B.4
Experimental: as §2
Beispiel B.5: Bodennematizide Wirkung gegen Caenorhabditis elegans
Der Test wird wie unter B.4 beschrieben durchgeführt, jedoch mit Caenorhabditis elegans. Die Verbindungn der Herstellungsbeispiele zeigen in diesem Test eine gute Wirksamkeit. Um eine fast vollständige Hemmung der Reproduktion zu erreichen, genügen bei manchen Verbindungen Konzentrationen von 1 ppm und weniger, wie beispielsweise bei den Verbindungen Nr. 1.39, 1.70 und 1.90 und vor allem Nr. 1.2, 1.3, 1.26, 1.43 und 1.66.

Dermanyssus gallinae = test: Miticidal action against Dermanyssus gallinae (contact test in glass vessel, mortality); conditions: geringere Wirkstoffkonzentrationen (below 100 ppm); observed three days; 4320 min
Experimental: Beispiel B.1: Milbizide Wirkung gegen Dermanyssus gallinae
2 bis 3 ml einer Testlösung (250, 100 und 10 ppm Aktivsubstanz) werden in einen nach oben offenen Glasbehälter gegeben und ca. 200 Milben in unterschiedlichen Entwicklungsstadien in diesen Behälter eingesetzt. Der Glasbehälter wird mit einem Wattebausch verschlossen und 10 Minuten gleichmässig, bis zur vollständigen [benetzung der Milben geschüttelt. Danach wird der Behälter umgekehrt hingestellt, bis die überschüssige Testlösung von der Watte aufgesogen ist. Der Behälter wird erneut gekehrt und die behandelten Zecken zur Evaluierung der Wirksamkeit der Testsubstanzen drei Tage unter Laborbedingungen beobachtet, wobei die Mortalität als Massstab für Wirksamkeit herangezogen wird.

Aphis craccivora = test: Contact action on Aphis craccivora (sprayed pea seedlings); conditions: niedrigere Konzentrationen (below 25 ppm); after 3 days
From the text: Beispiel B.9: Kontaktwirkung auf Aphis craccivora
Erbsenkeimlinge, die mit sämtlichen Entwicklungsstadien der Laus infiziert sind, werden mit einer aus einem Emulsionskonzentrat hergestellten Wirkstofflösung besprüht, die wahlweise 50 ppm, 25 ppm oder 12,5 ppm Wirkstoff enthält. Nach 3 Tagen wird auf mehr als 80 % tote bzw. abgefallene Blattläuse ausgewertet. Nur bei dieser Wirkungshöhe wird ein Präparat als wirksam eingestuft.

| Compound | Abtötung sämtlicher Larven (Aedes aegypti) | Abtötung (Spodoptera littoralis) | Abtötung [3] | Wirkung (Mortalität) (Dermanyssus gallinae) | Abtötung (Aphis craccivora) | mortality at 100 ppm [1] | further results |
| --- | --- | --- | --- | --- | --- | --- | --- |
| 13ß-(9-Fluorenyl-methoxy)-carbonyloxy-milbemycin A4 [1.114] | vollständige Abtötung |  |  |  |  |  | Wirkung (Mortalitätsrate) [1]: 100%; Vernichtung des Schädlings [2]: vollständige Vernichtung |
| 13β-(Cyclohexyloxycarbonyloxy)-milbemycin A4 [1.82] | vollständige Abtötung | vollständige Abtötung | vollständige Abtötung |  |  |  | Wirkung (Mortalitätsrate) [1]: 100% |
| 13β-([-]-Menthyloxy)-carbonyloxy-milbemycin A4 [1.90] | vollständige Abtötung |  |  |  |  |  | Wirkung (Mortalitätsrate) [1]: 100%; Vernichtung des Schädlings [2]: vollständige Vernichtung; Konzentration für fast vollständige Hemmung der Reproduktion (Meloidogyne incognita): ≤ 1 ppm; Konzentration für fast vollständige Hemmung der Reproduktion (Caenorhabditis elegans): ≤ 1 ppm |
| CC[C@H]1O[C@]2(CC[C@@H]1C)C[C@@H]1C[C@@H](C/C=C(\C)[C@H](OC(=O)OC)[C@@H](C)/C=C/C=C3\CO[C@@H]4[C@H](O)C(C)=C[C@@H](C(=O)O1)[C@]34O)O2 [1.2, 13ß-(Methoxycarbonyloxy)-milbemycin A4] |  |  |  | 100% | 100% |  |  |
| COC(=O)O[C@H]1/C(C)=C/C[C@@H]2C[C@@H](C[C@]3(CC[C@H](C)[C@@H](C(C)C)O3)O2)OC(=O)[C@@H]2C=C(C)[C@@H](O)[C@H]3OC/C(=C\C=C\[C@@H]1C)[C@]32O [1.3, 13ß-(Methoxycarbonyloxy)-milbemycin D] |  | vollständige Abtötung | vollständige Abtötung | 100% | 100% |  |  |
| CC[C@H]1O[C@]2(CC[C@@H]1C)C[C@@H]1C[C@@H](C/C=C(\C)[C@H](OC(=O)OC(C)C)[C@@H](C)/C=C/C=C3\CO[C@@H]4[C@H](O)C(C)=C[C@@H](C(=O)O1)[C@]34O)O2 [1.10, 13ß-Isopropyloxycarbonyloxy-milbemycin A4] | vollständige Abtötung | vollständige Abtötung | vollständige Abtötung | 100% | 100% | 100% |  |
| CC[C@H]1O[C@]2(CC[C@@H]1C)C[C@@H]1C[C@@H](C/C=C(\C)[C@H](OC(=O)OCCBr)[C@@H](C)/C=C/C=C3\CO[C@@H]4[C@H](O)C(C)=C[C@@H](C(=O)O1)[C@]34O)O2 [1.18, 13ß-(2-Bromäthoxy)-carbonyloxy-milbemycin A4] |  |  |  | 100% |  | 100% |  |
| CC[C@H]1O[C@]2(CC[C@@H]1C)C[C@@H]1C[C@@H](C/C=C(\C)[C@H](OC(=O)OCC(Cl)(Cl)Cl)[C@@H](C)/C=C/C=C3\CO[C@@H]4[C@H](O)C(C)=C[C@@H](C(=O)O1)[C@]34O)O2 [1.26, 13ß-[(2,2,2-Trichlorethoxy)-carbonyloxy]-milbemycin A4] | vollständige Abtötung | vollständige Abtötung |  |  |  | 100% |  |
| CC[C@H]1O[C@]2(CC[C@@H]1C)C[C@@H]1C[C@@H](C/C=C(\C)[C@H](OC(=O)OC(C)(C)C(Cl)(Cl)Cl)[C@@H](C)/C=C/C=C3\CO[C@@H]4[C@H](O)C(C)=C[C@@H](C(=O)O1)[C@]34O)O2 [1.34, 13ß-[(1,1-Dimethyl-2,2,2-trichlorethoxy)-carbonyloxy]-milbemycin A4] | vollständige Abtötung | vollständige Abtötung | vollständige Abtötung |  | 100% | 100% | Vernichtung des Schädlings [2]: vollständige Vernichtung |
| C=COC(=O)O[C@H]1/C(C)=C/C[C@@H]2C[C@@H](C[C@]3(CC[C@H](C)[C@@H](C(C)C)O3)O2)OC(=O)[C@@H]2C=C(C)[C@@H](O)[C@H]3OC/C(=C\C=C\[C@@H]1C)[C@]32O [1.39, 13ß-(Vinyloxycarbonyloxy)-milbemycin D] |  |  |  | 100% | 100% | 100% |  |
| C=CCOC(=O)O[C@H]1/C(C)=C/C[C@@H]2C[C@@H](C[C@]3(CC[C@H](C)[C@@H](C(C)C)O3)O2)OC(=O)[C@@H]2C=C(C)[C@@H](O)[C@H]3OC/C(=C\C=C\[C@@H]1C)[C@]32O [1.43, 13β-(Allyloxycarbonyloxy)-milbemycin D] |  |  |  | 100% | 100% | 100% |  |
| CC[C@H]1O[C@]2(CC[C@@H]1C)C[C@@H]1C[C@@H](C/C=C(\C)[C@H](OC(=O)OCc3ccccc3)[C@@H](C)/C=C/C=C3\CO[C@@H]4[C@H](O)C(C)=C[C@@H](C(=O)O1)[C@]34O)O2 [1.46, 13β-Benzyloxycarbonyloxy-milbemycin A4] |  |  |  | 100% |  | 100% |  |
| CC[C@H]1O[C@]2(CC[C@@H]1C)C[C@@H]1C[C@@H](C/C=C(\C)[C@H](OC(=O)Oc3ccccc3)[C@@H](C)/C=C/C=C3\CO[C@@H]4[C@H](O)C(C)=C[C@@H](C(=O)O1)[C@]34O)O2 [1.54, 13ß-Phenoxycarbonyloxy-milbemycin A4] | vollständige Abtötung | vollständige Abtötung |  |  | 100% | 100% |  |
| CC[C@H]1O[C@]2(CC[C@@H]1C)C[C@@H]1C[C@@H](C/C=C(\C)[C@H](OC(=O)Oc3ccc([N+](=O)[O-])cc3)[C@@H](C)/C=C/C=C3\CO[C@@H]4[C@H](O)C(C)=C[C@@H](C(=O)O1)[C@]34O)O2 [1.58, 13ß-(4-Nitrophenoxy)-carbonyloxy-milbemycin A4] | vollständige Abtötung |  |  |  |  | 100% |  |
| CC[C@H]1O[C@]2(CC[C@@H]1C)C[C@@H]1C[C@@H](C/C=C(\C)[C@H](OC(=O)Oc3ccc(C(=O)OC)cc3)[C@@H](C)/C=C/C=C3\CO[C@@H]4[C@H](O)C(C)=C[C@@H](C(=O)O1)[C@]34O)O2 [1.62, 13ß-(4-Methoxycarbonylphenoxy)-carbonyloxy-milbemycin A4] | vollständige Abtötung |  |  |  |  | 100% |  |
| CC[C@H]1O[C@]2(CC[C@@H]1C)C[C@@H]1C[C@@H](C/C=C(\C)[C@H](OC(=O)OCC(Cl)(Cl)C(F)(F)F)[C@@H](C)/C=C/C=C3\CO[C@@H]4[C@H](O)C(C)=C[C@@H](C(=O)O1)[C@]34O)O2 [1.98, 13ß-(3,3,3-Trifluor-2,2-dichlor-propyloxy)-carbonyloxy-milbemycin A4] | vollständige Abtötung | vollständige Abtötung | vollständige Abtötung |  |  |  |  |
